The text below walks through data of ChEMBL document CHEMBL2057110, “Investigation of the interaction between amodiaquine and human serum albumin by fluorescence spectroscopy and molecular modeling” (Eur J Med Chem, 2012).

Type in all cases: ADME
Holding throughout (conditions): isolated protein

Data set [1] addresses T1, Albumin (Homo sapiens, UniProt P02768). Put plainly: Apparent binding affinity to human serum albumin at pH 7.4 and 310K by spectrofluorimetrysis.
In data set [2] the target is T1, Albumin. Kind of data set: Binding affinity to human serum albumin assessed as modified Stern-Volmer association constant at pH 7.4 and 291K by spectrofluorimetry in presence of ibuprofen.
Data set [3] deals with T1, Albumin. Kind of data set: Apparent binding affinity to human serum albumin at pH 7.4 and 301K by spectrofluorimetry.
In data set [4] the target is T1, Albumin. Kind of data set: Binding affinity to human serum albumin assessed as Stern-Volmer association constant at pH 7.4 and 310K by spectrofluorimetry.
The target of data set [5] is T1, Albumin. Kind of data set: Binding affinity to human serum albumin assessed as modified Stern-Volmer association constant at pH 7.4 and 291K by spectrofluorimetry in presence of warfarin.
In data set [6] the target is T1, Albumin. Put plainly: Binding affinity to human serum albumin assessed as modified Stern-Volmer association constant at pH 7.4 and 310K by spectrofluorimetry.
Data set [7] addresses T1, Albumin. Put plainly: Apparent binding affinity to human serum albumin at pH 7.4 and 291K by spectrofluorimetry.
Data set [8] addresses T1, Albumin. Kind of data set: Binding affinity to human serum albumin assessed as Stern-Volmer association constant at pH 7.4 and 291K by spectrofluorimetry.
The target in data set [9] is T1, Albumin. Put plainly: Binding affinity to human serum albumin assessed as Stern-Volmer association constant at pH 7.4 and 301K by spectrofluorimetry.

T1 sequence (P02768 whole entry): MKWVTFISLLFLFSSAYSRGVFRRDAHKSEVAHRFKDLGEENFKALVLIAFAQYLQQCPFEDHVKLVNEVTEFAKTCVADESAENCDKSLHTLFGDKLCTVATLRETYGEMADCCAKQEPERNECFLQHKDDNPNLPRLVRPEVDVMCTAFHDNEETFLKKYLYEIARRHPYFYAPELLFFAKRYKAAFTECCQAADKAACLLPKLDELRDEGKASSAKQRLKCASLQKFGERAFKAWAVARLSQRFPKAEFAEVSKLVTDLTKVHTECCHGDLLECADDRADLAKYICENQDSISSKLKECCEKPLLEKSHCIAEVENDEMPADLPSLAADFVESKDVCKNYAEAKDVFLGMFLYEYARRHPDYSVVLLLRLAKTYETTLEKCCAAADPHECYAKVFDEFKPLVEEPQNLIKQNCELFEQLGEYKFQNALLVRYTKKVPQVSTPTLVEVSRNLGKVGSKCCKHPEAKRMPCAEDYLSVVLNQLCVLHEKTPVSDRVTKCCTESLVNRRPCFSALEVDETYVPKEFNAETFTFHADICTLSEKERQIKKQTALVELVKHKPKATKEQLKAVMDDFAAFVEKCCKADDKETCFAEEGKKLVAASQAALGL

Consider `CCN(CC)Cc1cc(Nc2ccnc3cc(Cl)ccc23)ccc1O.Cl`, for which the figures for the Kb at Albumin [1], on Albumin [3] and at Albumin [7] were 67300 M⁻¹, 48600 M⁻¹ and 35000 M⁻¹, respectively. The Ka at Albumin [2] amounted to 114000 M⁻¹; at Albumin [5], 73100 M⁻¹; on Albumin [6] it was 45900 M⁻¹. In addition, the KSV on Albumin [4] amounted to 48400 M⁻¹; on Albumin [8], 76600 M⁻¹; on Albumin [9], 56200 M⁻¹.
